Laboratory results from patent US10160771B2, “Hepatitis C virus inhibitors and uses thereof in preparation of drugs” (priority 2014, dated 2018).

Key:
[1] = system: HCV genotype 1b (HCV-1b) replicon cells; assay: HCV genotype 1b replicon luciferase assay (EC50); assay type: cell-based, hepatitis C virus genotype 1b (Con1 clone); settings: 3 days, luciferase (Bright-Glo)
Experimental: (§1) The EC50 and CC50 values of anti-HCV compounds were determined by HCV genotype 1a (HCV-1a) and 1B (HCV-1b) stable transfer replication (replicon) cells. The source of genotype 1a replicon is H77 clones containing K1691R, K2040R and S2204I adaptive mutations. The source of genotype 1b replicon is Con1 clones containing E1202G, T1280I and K1846T adaptive mutations.
(§2) HCV 1a (HCV-1a) and 1b (HCV-1b) gene subtype replicon system contains the related HCV gene subtype non structural protein gene, G418 resistance gene NEO and luciferase gene, which results in that HCV related protein and luciferase can be stably expressed in cells. By detecting the level of expression of luciferase gene, the level of HCV replication can be determined. Therefore, the system is used as a model for screening the activity of anti-HCV compound in vitro.
(§3) HCV Replicon Cell Lines: HCV-1a and HCV-1b Cells
(§4) The compound powder was dissolved in 100% DMSO. Then the compound was diluted 5 times with 6 points, and added into the cell plate with Echo liquid handler. Ensure the final concentration of DMSO was 0.5%. Each compound was tested in double holes. Maximum initial concentration was 100, 10 or 1 nM, 5 times dilution, 6 points.
(§5) b) Cell Culture (HCV-1a or HCV-1b Replicon Cell):
(§6) 1) absorbing the culture supernatant of the cell culture and washing the cells with 10 mL PBS.
(§7) 2) adding preheated pancreatin to the washed cell culture flasks, rotating culture bottle to make the bottom of the culture bottle uniformly covered by pancreatin, then placed into 37° C., 5% CO2 incubator to digest.
(§8) 3) suspending cells in each T150 culture flask with 10-15 mL culture medium, absorbing 0.1 mL liquid and diluting 2 times by trypan blue solution as counted.
(§9) 4) diluting cells to 8×10^4/mL with the culture medium, adding the diluted cells into the compound-containing 96-well plate (Greiner, Cat.#655090) (100 μL/well, 8000 cells/well) with automatic liquid separator (Thermo Scientific). Then place into a 37° C., 5% CO2 incubator for 3 days. Cell control well: no compound, only containing 0.5% DMSO.
(§10) 6) then adding luciferase luminescence substrate Bright-Glo, after incubation for 5 minutes, detecting the luciferase activity by chemical luminescence detection system Envison (wavelength>700 nm); analyzing the anti-HCV inhibitory activity of the compounds according to luciferase data, which was used to calculate EC50 values.
(§11) The EC50 or CC50 values were obtained by nonlinear fitting analysis on inhibition percentage (inh %) data with GraphPad Prism software.

[2] = system: HCV genotype 1a (HCV-1a) replicon cells; assay: HCV genotype 1a replicon luciferase assay (EC50); assay type: cell-based, hepatitis C virus genotype 1a (H77 clone); settings: Hepatitis C virus, 72 h, 3 days, luciferase (Bright-Glo)
Experimental: as §1, §2, §3, §4, §5, §6, §7, §8, §9, §10, §11

Structure (SMILES)	EC50 [1] [nM]	EC50 ([1]; Hepatitis C virus, 72 h) [nM]	EC50 [2] [nM]
COC(=O)N[C@H](C(=O)N1CCC[C@H]1c1ncc(-c2ccc(-c3ccc(-c4cnc(C5C6CCC(C6)[C@H]5C(=O)N(NC(=O)OC)C(C)C)[nH]4)cc3)cc2)[nH]1)C(C)C (stereo partly shown) [AA_016]	0.101 to 1	–	–
COC(=O)N[C@H](C(=O)N1CCC[C@H]1c1ncc(-c2ccc(-c3ccc(-c4cnc(C5=C(C(=O)NC(C)C)CCC5)[nH]4)cc3)cc2)[nH]1)C(C)C [AA_027]	–	10 to 100	–
COC(=O)NC(C(=O)C1CCCCC1c1ncc(-c2ccc(-c3ccc(-c4cnc(C5CCCC[C@H]5C(=O)N(NC(=O)OC)C(C)C)[nH]4)cc3)cc2)[nH]1)C(C)C (stereo partly shown) [AA_029]	–	10 to 100	–
COC(=O)N[C@H](C(=O)N1CCC[C@H]1c1ncc(-c2ccc(-c3ccc(-c4cnc(C5C6C=CC(C6)[C@H]5C(=O)N(NC(=O)OC)C(C)C)[nH]4)cc3)cc2)[nH]1)C(C)C (stereo partly shown) [AA_032]	–	0.101 to 1	–
COC(=O)NN(C(=O)C1=C(c2ncc(-c3ccc(-c4ccc(-c5cnc(C6=C(C(=O)N(NC(=O)OC)C(C)C)CCC6)[nH]5)cc4)cc3)[nH]2)CCC1)C(C)C [AA_033]	–	10 to 100	10 to 100
COC(=O)NN(C(=O)[C@@H]1C2C=CC(C2)C1c1ncc(-c2ccc(-c3ccc(-c4cnc(C5C6C=CC(C6)[C@@H]5C(=O)N(NC(=O)OC)C(C)C)[nH]4)cc3)cc2)[nH]1)C(C)C (stereo partly shown) [AA_034]	–	10 to 100	10 to 100
COC(=O)N[C@H](C(=O)N1CCC[C@H]1c1ncc(-c2ccc(-c3ccc(-c4cnc(C5=C(C(=O)N(CC(=O)O)C(C)C)CCC5)[nH]4)cc3)cc2)[nH]1)C(C)C [AA_047]	–	10 to 100	–
COC(=O)N[C@H](C(=O)N1CCC[C@H]1c1ncc(-c2ccc(-c3ccc(-c4cnc(C5CCCC[C@H]5C(=O)N5CCNC(=O)C5)[nH]4)cc3)cc2)[nH]1)C(C)C (stereo partly shown) [AA_054]	–	0.101 to 1	–
COC(=O)N[C@H](C(=O)N1CCC[C@H]1c1ncc(-c2ccc(-c3ccc(-c4cnc(C5CCCC[C@H]5C(=O)N5CCCC5)[nH]4)cc3)cc2)[nH]1)C(C)C (stereo partly shown) [AA_055]	–	1 to 10	–
COC(=O)N[C@H](C(=O)N1CCC[C@H]1c1ncc(-c2ccc(-c3ccc(-c4cnc(C5CCCC[C@H]5C(=O)N5CCOCC5)[nH]4)cc3)cc2)[nH]1)C(C)C (stereo partly shown) [AA_056]	–	1 to 10	–
COC(=O)N[C@H](C(=O)N1CCC[C@H]1c1ncc(-c2ccc(-c3ccc(-c4cnc(C5CCCC[C@H]5C(=O)N5CCCCC5)[nH]4)cc3)cc2)[nH]1)C(C)C (stereo partly shown) [AA_057]	–	10 to 100	–
COC(=O)CN(C(=O)[C@@H]1CCCCC1c1ncc(-c2ccc(-c3ccc(-c4cnc([C@@H]5CCCN5C(=O)[C@@H](NC(=O)OC)C(C)C)[nH]4)cc3)cc2)[nH]1)C(C)C (stereo partly shown) [AA_063]	–	1 to 10	–
COC(=O)N[C@H](C(=O)N1CCC[C@H]1c1ncc(-c2ccc(-c3ccc(-c4cnc(C5=C(C(=O)N(CC(=O)NC6CC6)C(C)C)CCC5)[nH]4)cc3)cc2)[nH]1)C(C)C [AA_064]	–	1 to 10	–
CNC(=O)CN(C(=O)C1=C(c2ncc(-c3ccc(-c4ccc(-c5cnc([C@@H]6CCCN6C(=O)[C@@H](NC(=O)OC)C(C)C)[nH]5)cc4)cc3)[nH]2)CCC1)C(C)C [AA_065]	–	1 to 10	–
COC(=O)NC(C(=O)N1CCC[C@H]1c1ncc(-c2ccc(-c3ccc4cc(-c5cnc(C6CCCC[C@H]6C(=O)N(NC(=O)OC)C(C)C)[nH]5)ccc4c3)cc2)[nH]1)C1CCOC1 (stereo partly shown) [AA_076]	–	1 to 10	–
COC(=O)N[C@H](C(=O)N1CCC[C@H]1c1ncc(-c2ccc3cc(-c4cnc(C5CCCC[C@H]5C(=O)N(NC(=O)OC)C(C)C)[nH]4)ccc3c2)[nH]1)C(C)C (stereo partly shown) [AA_079]	–	10 to 100	–
COC(=O)NC(C(=O)[C@@H]1CCCCC1c1ncc(-c2ccc(-c3ccc4c(c3)cc3n4C(c4ccc(F)cc4)Oc4cc(-c5cnc([C@@H]6CCCN6C(=O)[C@@H](NC(=O)OC)C(C)C)[nH]5)ccc4-3)cc2)[nH]1)C(C)C (stereo partly shown) [AA_089]	–	1 to 10	–
COC(=O)N[C@H](C(=O)N1CCC[C@H]1c1ncc(-c2ccc3cc(-c4ccc(-c5cnc([C@@H]6CCCC[C@@H]6C(=O)N(NC(=O)OC)C(C)C)[nH]5)cc4)ccc3c2)[nH]1)C(C)C [AA_090_A]	–	1 to 10	–

Structure (SMILES)	EC50 [1] [nM]	EC50 ([1]; Hepatitis C virus, 72 h) [nM]	EC50 [2] [nM]
COC(=O)N[C@H](C(=O)N1CCC[C@H]1c1ncc(-c2ccc3cc(-c4ccc(-c5cnc([C@H]6CCCC[C@H]6C(=O)N(NC(=O)OC)C(C)C)[nH]5)cc4)ccc3c2)[nH]1)C(C)C [AA_090_B]	–	1 to 10	–
COC(=O)NN(C(=O)C1C2CCC(O2)[C@H]1c1ncc(-c2ccc(-c3ccc4cc(-c5cnc(C6CCCC[C@H]6C(=O)N(NC(=O)OC)C(C)C)[nH]5)ccc4c3)cc2)[nH]1)C(C)C (stereo partly shown) [AA_092]	–	10 to 100	–
COC(=O)N[C@H](C(=O)N1CCC[C@H]1c1ncc(-c2ccc(-c3ccc(-c4cnc(C5C6CCC(O6)[C@H]5C(=O)N(NC(=O)OC)C(C)C)[nH]4)cc3)cc2)[nH]1)C(C)C (stereo partly shown) [AA_095]	–	1 to 10	–
COC(=O)N[C@H](C(=O)N1CCC[C@H]1c1ncc(-c2ccc(-c3ccc([C@@H](C)NC(=O)[C@H]4CCCC[C@H]4C(=O)N(NC(=O)OC)C(C)C)cc3)cc2)[nH]1)C(C)C [AA_096]	–	10 to 100	–
COC(=O)N[C@H](C(=O)N1CCC[C@H]1c1ncc(-c2ccc(-c3ccc([C@H](C)NC(=O)[C@H]4CCCC[C@H]4C(=O)N(NC(=O)OC)C(C)C)cc3)cc2)[nH]1)C(C)C [AA_097]	–	10 to 100	–
COC(=O)N[C@H](C(=O)N1CCC[C@H]1c1ncc(-c2ccc3cc(-c4ccc(-c5cnc([C@H]6C7CCC(O7)[C@H]6C(=O)N(NC(=O)OC)C(C)C)[nH]5)cc4)ccc3c2)[nH]1)C(C)C (stereo partly shown) [AA_106]	–	10 to 100	–
COC(=O)N[C@H](C(=O)N1CCC[C@H]1c1ncc(-c2ccc3cc(-c4ccc(-c5cnc([C@@H]6C7CCC(O7)[C@@H]6C(=O)N(NC(=O)OC)C(C)C)[nH]5)cc4)ccc3c2)[nH]1)C(C)C (stereo partly shown) [AA_107]	–	10 to 100	–
COCCNC(=O)[C@@H]1CCCCC1c1ncc(-c2ccc(-c3ccc(-c4cnc([C@@H]5CCCN5C(=O)[C@@H](NC(=O)OC)C(C)C)[nH]4)cc3)cc2)[nH]1 (stereo partly shown) [AA_114]	–	1 to 10	–
COC(=O)N[C@H](C(=O)N1CCC[C@H]1c1ncc(-c2ccc(-c3ccc(-c4cnc(C5CCCC[C@H]5C(=O)NCC5CC5)[nH]4)cc3)cc2)[nH]1)C(C)C (stereo partly shown) [AA_115]	–	1 to 10	–
COCCCNC(=O)[C@@H]1CCCCC1c1ncc(-c2ccc(-c3ccc(-c4cnc([C@@H]5CCCN5C(=O)[C@@H](NC(=O)OC)C(C)C)[nH]4)cc3)cc2)[nH]1 (stereo partly shown) [AA_116]	–	1 to 10	–
COC(=O)N[C@H](C(=O)N1CCC[C@H]1c1ncc(-c2ccc(-c3ccc(-c4cnc([C@@H]5[C@H]6CC[C@H](C6)[C@H]5C(=O)NCc5ccc(F)nc5)[nH]4)cc3)cc2)[nH]1)C(C)C [AA_214_ENDOA2]	–	0.001 to 0.1	1 to 10
COC(=O)N[C@H](C(=O)N1CCC[C@H]1c1ncc(-c2ccc(-c3ccc(-c4cnc([C@@H]5C6CCC(C6)[C@H]5C(=O)NC5(C(=O)NCC(F)F)CCCCC5)[nH]4)cc3)cc2)[nH]1)C(C)C (stereo partly shown) [AA_275]	–	0.001 to 0.1	10 to 100
COC(=O)N[C@H](C(=O)N1CCC[C@H]1c1ncc(-c2ccc(-c3ccc(-c4cnc([C@@H]5C6CCC(C6)[C@H]5C(=O)N[C@@H](C(=O)NCC(F)F)C(C)C)[nH]4)cc3)cc2)[nH]1)C(C)C (stereo partly shown) [AA_276]	–	1 to 10	10 to 100
COC(=O)N[C@H](C(=O)N1CCC[C@H]1c1ncc(-c2ccc(-c3ccc(-c4cnc([C@@H]5C6CCC(C6)[C@H]5C(=O)NCC(=O)NCC(F)F)[nH]4)cc3)cc2)[nH]1)C(C)C (stereo partly shown) [AA_277]	–	0.001 to 0.1	0.101 to 1
COC(=O)CNC(=O)C1(NC(=O)[C@@H]2C3CCC(C3)[C@H]2c2ncc(-c3ccc(-c4ccc(-c5cnc([C@@H]6CCCN6C(=O)[C@@H](NC(=O)OC)C(C)C)[nH]5)cc4)cc3)[nH]2)CCCCC1 (stereo partly shown) [AA_278]	–	0.101 to 1	10 to 100
COC(=O)N[C@H](C(=O)N1CCC[C@H]1c1ncc(-c2ccc(-c3ccc(-c4cnc([C@@H]5[C@H]6CC[C@H](C6)[C@H]5C(=O)N[C@@H](C)c5nccs5)[nH]4)cc3)cc2)[nH]1)C(C)C [AA_279_ENDOA2_A]	–	0.001 to 0.1	0.101 to 1
COC(=O)N[C@H](C(=O)N1CCC[C@H]1c1ncc(-c2ccc(-c3ccc(-c4cnc([C@@H]5[C@H]6CC[C@H](C6)[C@H]5C(=O)N[C@H](C)c5nccs5)[nH]4)cc3)cc2)[nH]1)C(C)C [AA_279_ENDOA2_B]	–	0.001 to 0.1	1 to 10
COC(=O)N[C@H](C(=O)N1CCC[C@H]1c1ncc(-c2ccc(-c3ccc(-c4cnc([C@@H]5[C@H]6CC[C@H](C6)[C@H]5C(=O)N[C@H](C(=O)OC)C(C)C)[nH]4)cc3)cc2)[nH]1)C(C)C [AA_282_ENDOA2]	–	0.001 to 0.1	1 to 10
